Assay results from article PMC9103715, “New Panx-1 Blockers: Synthesis, Biological Evaluation and Molecular Dynamic Studies” (International Journal of Molecular Sciences, 2022).

What was measured:
Panx-1 channels = biological target: T1, Panx-1 channels (Mus musculus, UniProt Q9JIP4); assay: Voltage clamp on Xenopus laevis oocytes expressing Panx-1 channels; format: cell-based; details: for inhibition at 50 µM / I (%) inhibition of Panx-1 currents: voltage clamp, Xenopus laevis oocytes expressing Panx-1 channels, 50 µM; for inhibition at 50 µM: read-out: I (%) inhibition of Panx-1 currents; for classification as active or inactive Panx-1 blocker: grouping chosen for the virtual screening
T1 construct: expressed in transfected cells; host or cells: Xenopus laevis oocytes injected with in vitro-transcribed mRNA
Procedure: All new products were screened as Panx-1 blockers at the dose of 50 µM using the Voltage Clamp technique on Xenopus Laevis oocytes expressing Panx-1 channels. The membrane potential of the cells was held at -60 mV and voltage steps to +60 mV were applied to induce membrane currents. To verify that Panx-1 channels carried the currents, in each experiment 100 µM carbenoxolone (CBX) was applied. At this concentration, CBX is known to yield 100% inhibition of Panx-1 activity. If present, leak currents resistant to CBX were subtracted from the total current to assess % inhibition mediated by the tested compounds. Table 1 and Table 2 report the electrophysiological results of naphthalene-2-sulphonic acid derivatives bearing at position 5 an amino- (3a–e, 4 and 5) or amide group (7a–g, 8 and 9) and of compound 13.
Oocytes of Xenopus laevis are prepared as previously described in [39] where the oocytes are isolated from surgically removed ovary segments incubated in an Oocyte Ringe solution Ca2-free (OR2: in mM: 82.5 NaCl, 2.5 KCl, 1.0 MgCl2, […], 1.0 Na2HPO4 e 5.0 HEPES, pH 7.5) with 2 mg/mL of collagenase and antibiotics (10,000 U/mL penicillin and 10 mg/mL of streptomycin) stirred at room temperature for 3 h. After being washed with OR2, oocytes free of follicular cells and that have a uniform pigmentation are chosen and stored in OR2 for 18 °C.
Mouse pannexin1, in pCS2, was linearised with NotI. In vitro transcription was performed with the polymerase SP6, using the Message Machine kit (Ambion). mRNA was quantified by absorbance (260 nm), and the proportion of full-length transcripts was checked by agarose gel electrophoresis. In vitro-transcribed mRNA (~20 nL) was injected into Xenopus laevis oocytes.
Whole-cell membrane currents of oocytes were measured using a two-electrode voltage clamp (Gene Clamp 500B, Axon Instruments/Molecular Devices Sunnyvale, Union City, CA, USA). Glass pipettes were pulled using a P-97 Flaming/Brown type puller (Sutter, Novato, CA, USA). The recording chamber was perfused continuously with frog Ringer (OR) solution (in mM: 82.5 NaCl, 2.5 KCl, 1 CaCl2, 1 MgCl2, 1 Na2HPO4, and 5 HEPES, pH 7.5).
Membrane conductance was determined using voltage pulses, and the pulse-induced current amplitudes were divided by the amplitudes of the voltage steps. For calculation of % inhibition, leak currents were subtracted. Typically, leak currents after the interventions were smaller than at the beginning of the experiment and this smaller value was used for the subtraction to avoid overestimation of the inhibitory effect. For an independent measure of the leak current, oocytes at the end of the experiment were exposed to 100 µM carbenoxolone, which is known to close Panx1 channels 100%. Oocytes expressing Panx1 were held at −60 mV, and pulses to +60 mV were applied to transiently open the channels by means of the voltage gate. Pulses 5 s in duration were applied at 0.1 Hz for current and conductance measurements.

T1 sequence (Q9JIP4 whole entry): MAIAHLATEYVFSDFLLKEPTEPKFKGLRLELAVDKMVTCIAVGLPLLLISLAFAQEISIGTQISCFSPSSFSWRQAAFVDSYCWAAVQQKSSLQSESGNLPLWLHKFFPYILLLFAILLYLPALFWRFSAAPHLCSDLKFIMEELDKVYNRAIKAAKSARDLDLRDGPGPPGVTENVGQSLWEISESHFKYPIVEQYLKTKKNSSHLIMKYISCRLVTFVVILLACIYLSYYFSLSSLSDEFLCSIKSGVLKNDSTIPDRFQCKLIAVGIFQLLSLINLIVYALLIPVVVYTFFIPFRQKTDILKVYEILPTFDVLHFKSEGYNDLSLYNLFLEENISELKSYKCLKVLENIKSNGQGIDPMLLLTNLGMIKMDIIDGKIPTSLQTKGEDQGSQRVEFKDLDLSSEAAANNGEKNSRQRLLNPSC

SMILES	melting point	inhibition at 50 µM (Panx-1 channels) [%]	other results
O=S(=O)(O)c1ccc2c(NCc3ccccc3)cccc2c1 (hydrate or solvate) [Compound 3a, 5-(Benzylamino)naphthalene-2-Sulfonic Acid]	> 300 °C	–	–
O=S(=O)(O)c1ccc2c(NCCc3ccccc3)cccc2c1 (hydrate or solvate) [Compound 3b, 5-(Phenethylamino)naphthalene-2-sulfonic acid]	> 300 °C	–	–
O=S(=O)(O)c1ccc2c(NCCCc3ccccc3)cccc2c1 (hydrate or solvate) [Compound 3c, 5-[(3-Phenylpropyl)amino]naphthalene-2-sulfonic acid]	> 300 °C	–	–
O=S(=O)(O)c1ccc2c(NCCCCc3ccccc3)cccc2c1 (hydrate or solvate) [Compound 3d, 5-[(4-Phenylbutyl)amino]naphthalene-2-sulfonic acid]	> 300 °C	–	–
O=S(=O)(O)c1ccc2c(NCCCCCc3ccccc3)cccc2c1 (hydrate or solvate) [Compound 3e, 5-[(5-Phenylpentyl)amino]naphthalene-2-sulfonic acid]	> 300 °C	–	–
O=C(O)c1ccc(CNc2cccc3cc(S(=O)(=O)O)ccc23)cc1 (hydrate or solvate) [Compound 4, 4-[(6-Sulfonaphthalen-1-yl)aminomethyl]benzoic Acid]	> 300 °C	–	–
CN(Cc1ccccc1)c1cccc2cc(S(=O)(=O)O)ccc12 (hydrate or solvate) [Compound 5, 5-(Benzyl(methyl)amino)naphthalene-2-sulfonic Acid]	> 300 °C	–	–
O=C(O)c1ccc(CN(Cc2ccc(C(=O)O)cc2)S(=O)(=O)c2ccc(C(=O)O)cc2)cc1 (hydrate or solvate) [Compound 13, 4,4′-{{[(4-Carboxyphenyl)sulfonyl]azanediyl}bis(methylene)}dibenzoic acid]	> 300 °C	–	–
O=S(=O)(O)c1ccc2c(NCc3ccccc3)cccc2c1 [Compound 3a, 5-(Benzylamino)naphthalene-2-Sulfonic Acid]	–	31.7 ± 0.9	classification as active or inactive Panx-1 blocker (Panx-1 channels): inactive
O=S(=O)(O)c1ccc2c(NCCc3ccccc3)cccc2c1 [Compound 3b, 5-(Phenethylamino)naphthalene-2-sulfonic acid]	–	24.3 ± 3.5	–
O=S(=O)(O)c1ccc2c(NCCCCc3ccccc3)cccc2c1 [Compound 3d, 5-[(4-Phenylbutyl)amino]naphthalene-2-sulfonic acid]	–	47 ± 5.7	–
O=S(=O)(O)c1ccc2c(NCCCCCc3ccccc3)cccc2c1 [Compound 3e, 5-[(5-Phenylpentyl)amino]naphthalene-2-sulfonic acid]	–	62 ± 6	–
COC(=O)c1ccc(CNc2cccc3cc(S(=O)(=O)O)ccc23)cc1 [Compound 3f, 5-[(4-(Methoxycarbonyl)benzyl)amino]naphthalene-2-sulfonic acid]	> 300 °C	–	–
CN(Cc1ccccc1)c1cccc2cc(S(=O)(=O)O)ccc12 [Compound 5, 5-(Benzyl(methyl)amino)naphthalene-2-sulfonic Acid]	–	27.3 ± 2.6	–
O=C(Nc1cccc2cc(S(=O)(=O)O)ccc12)c1ccccc1 [Compound 8, 5-Benzamidonaphthalene-2-sulfonic Acid]	–	15	I (%) inhibition of Panx-1 currents (Panx-1 channels): 15.3 ± 4.9%; classification as active or inactive Panx-1 blocker (Panx-1 channels): inactive
CCCCN(CCCC)S(=O)(=O)c1ccc(C(=O)Nc2cccc3cc(S(=O)(=O)[O-])ccc23)cc1.[Na+] [Compound 9, Sodium 5-[4-(N,N-dibutylsulfamoyl)benzamido]naphthalene-2-sulfonate]	–	–	I (%) inhibition of Panx-1 currents (Panx-1 channels): 65.3 ± 3.9%
Nc1c(C(=O)O)cnn1-c1ccc(S(N)(=O)=O)cc1 [Compound 17, 5-Amino-1-(4-sulfamoylphenyl)-1H-pyrazole-4-carboxylic acid]	210 to 211 °C	0	–

Further lines, with some results ahead:

melting point	inhibition at 50 µM (Panx-1 channels) [%]	SMILES	other results
> 300 °C	–	CCN(CC)S(=O)(=O)c1ccc(C(=O)Nc2cccc3cc(S(=O)(=O)O)ccc23)cc1 (hydrate or solvate) [Compound 7a, 5-[4-(N,N-diethylsulfamoyl)benzamido]naphthalene-2-sulfonic acid]	–
> 300 °C	–	CCCN(CCC)S(=O)(=O)c1ccc(C(=O)Nc2cccc3cc(S(=O)(=O)O)ccc23)cc1 (hydrate or solvate) [Compound 7b, 5-[4-(N,N-dipropylsulfamoyl)benzamido]naphthalene-2-sulfonic acid]	–
> 300 °C	–	CCCCN(CCCC)S(=O)(=O)c1ccc(C(=O)Nc2cccc3cc(S(=O)(=O)O)ccc23)cc1 (hydrate or solvate) [Compound 7c, 5-[4-(N,N-dibutylsulfamoyl)benzamido]naphthalene-2-sulfonic acid]	–
> 300 °C	–	O=C(Nc1cccc2cc(S(=O)(=O)O)ccc12)c1ccc(S(=O)(=O)N(Cc2ccccc2)Cc2ccccc2)cc1 (hydrate or solvate) [Compound 7d, 5-[4-(N,N-dibenzylsulfamoyl)benzamido]naphthalene-2-sulfonic acid]	–
> 300 °C	–	O=C(Nc1cccc2cc(S(=O)(=O)O)ccc12)c1ccc(S(=O)(=O)N(CCc2ccccc2)CCc2ccccc2)cc1 (hydrate or solvate) [Compound 7e, 5-[4-(N,N-diphenethylsulfamoyl)benzamido]naphthalene-2-sulfonic acid]	–
> 300 °C	–	O=C(Nc1cccc2cc(S(=O)(=O)O)ccc12)c1ccc(S(=O)(=O)N(CCc2ccccc2)Cc2ccccc2)cc1 (hydrate or solvate) [Compound 7f, 5-[4-(N-benzyl-N-phenethylsulfamoyl)benzamido]naphthalene-2-sulfonic acid]	–
> 300 °C	–	O=C(Nc1cccc2cc(S(=O)(=O)O)ccc12)c1ccc(S(=O)(=O)NCCc2ccccc2)cc1 (hydrate or solvate) [Compound 7g, 5-[4-(N-phenethylsulfamoyl)benzamido]naphthalene-2-sulfonic acid]	–
–	54 ± 2.3	CCN(CC)S(=O)(=O)c1ccc(C(=O)Nc2cccc3cc(S(=O)(=O)O)ccc23)cc1 [Compound 7a, 5-[4-(N,N-diethylsulfamoyl)benzamido]naphthalene-2-sulfonic acid]	–
–	34	CCCN(CCC)S(=O)(=O)c1ccc(C(=O)Nc2cccc3cc(S(=O)(=O)O)ccc23)cc1 [Compound 7b, 5-[4-(N,N-dipropylsulfamoyl)benzamido]naphthalene-2-sulfonic acid]	I (%) inhibition of Panx-1 currents (Panx-1 channels): 34.3 ± 5.2%
–	58.3 ± 7.5	O=C(Nc1cccc2cc(S(=O)(=O)O)ccc12)c1ccc(S(=O)(=O)N(CCc2ccccc2)CCc2ccccc2)cc1 [Compound 7e, 5-[4-(N,N-diphenethylsulfamoyl)benzamido]naphthalene-2-sulfonic acid]	–
–	61.3 ± 4.3	O=C(Nc1cccc2cc(S(=O)(=O)O)ccc12)c1ccc(S(=O)(=O)N(CCc2ccccc2)Cc2ccccc2)cc1 [Compound 7f, 5-[4-(N-benzyl-N-phenethylsulfamoyl)benzamido]naphthalene-2-sulfonic acid]	–
–	47.3 ± 6.5	O=C(Nc1cccc2cc(S(=O)(=O)O)ccc12)c1ccc(S(=O)(=O)NCCc2ccccc2)cc1 [Compound 7g, 5-[4-(N-phenethylsulfamoyl)benzamido]naphthalene-2-sulfonic acid]	classification as active or inactive Panx-1 blocker (Panx-1 channels): inactive
208 to 210 °C (dec.)	0	CCNS(=O)(=O)c1ccc(-n2ncc(C(=O)O)c2N)cc1 [Compound 18a, 5-Amino-1-(4-(N-ethylsulfamoyl)phenyl)-1H-pyrazole-4-carboxylic acid]	–
215 to 218 °C	4 ± 2.3	CCCNS(=O)(=O)c1ccc(-n2ncc(C(=O)O)c2N)cc1 [Compound 18b, 5-Amino-1-(4-(N-propylsulfamoyl)phenyl)-1H-pyrazole-4-carboxylic acid]	–
> 300 °C	10.3 ± 4.9	CCCCNS(=O)(=O)c1ccc(-n2ncc(C(=O)O)c2N)cc1 [Compound 18c, 5-Amino-1-(4-(N-butylsulfamoyl)phenyl)-1H-pyrazole-4-carboxylic acid]	–
